This note sets out measurements from patent publication US20040029167A1, “Inducible COMT_II promoter, chimeric gene containing same and plants transformed therewith” (priority 1999, published 2004).

This assay relates to COMT II (−1215 to +24)/GUS. Kind of assay: Induction of GUS activity in COMT II (−1215 to +24)/GUS transgenic plants by elicitors and chemical products. In kind it is in vivo, Nicotiana tabacum cv. Samsun NN. Conditions: for GUS Activity: leaves 16 h after infiltration, SA 1 mM, INA 1 mM, chitins 100 μg/ml, glucans 200 μg/ml, pectins 200 μg/ml; for Induction %: nontreated control C = 100, 16 h after infiltration, concentrations as for GUS Activity column. The protocol:
The transgenic plants containing the construct COMT II (−1215 to +24)/GUS were treated with various chemical products, regulators of defense reactions, with methyl-2,6-dichloroisonicotinic (INA) and salicylic acid (SA), with fungal elicitors such as glucans or fragments of chitin and an elicitor of plant origin, such as pectin. The GUS activity is expressed in pmol MU/min.mg. The control (C) corresponds to the basal GUS activity in the nontreated transformed plants.
The induction of the 1239 bp promoter was studied during injury or after treatment with methyl jasmonate (molecule which plays a role in defense response signaling during injury) or with benzothiadiazole (BTH) (chemical SAR-inducer). The GUS activity is measured 16 h after treatment.
The COMT II and GUS activities were assayed on 100 mg of tissues. The tissue is homogenized in a 100 mM sodium phosphate buffer at pH 7.5 containing 10 mM of DTT, after addition of polyclar AT (Serva) and of quartz. The crude extracts are clarified by centrifugation and by filtration on glass wool. The GUS and COMT II activities are measured on the same crude extracts. For measuring the COMT II activity, an aliquot of the protein extract is added to 1 ml of phosphate buffer comprising 100 μM of catechol and 50 μM of tritiated S-adenosyl-L-methionine (1.5×10^5 cpm/ml) and incubated for 3 hours at 37° C. The reaction is stopped by adding 100 μl of 9M sulfuric acid. The radioactive reaction product, […], is extracted with 5 ml of an NA scintillation solution (Beckman) and the radioactivity is counted on a Beckman LS 9000 machine. The fluorimetric measurement of the GUS activity is performed on the same samples, according to the procedure of Jefferson et al. (1987). The protein content is determined by the Bradford method (1976) using Biorad reagents.
Treatment with an elicitor: Solutions are infiltrated, using a syringe equipped with a fine needle, in the mesophyl of the leaves. The infiltrated regions are delimited with a felt-tip marker. The infiltrated regions are harvested 16 hours after treatment. The leaves are treated with a solution of β-megaspermine, a protein elicitor purified from a Phytophthora megasperma culture medium (Kauffmann et al., 1993), or of oligosaccharides such as chitin oligomers (100 μg/ml), glucan fragments (200 μg/ml) and pectin fragments (200 μg/ml). The control plants are infiltrated with water.
Chemical treatments: (1) Solutions of SA (1 mM) or of INA (50 mM) are infiltrated into tobacco leaves using.the protocol described for the treatment with elicitors. (2) Under identical culture conditions, solutions of SA (10 mM), INA (1 mM) or BTH (50 mM) are sprayed onto the transgenic plants. The tissues are recovered 16 hours after treatment. Plants treated with water are used as a control. (3) Seven-week-old plants or leaves of vitroplants kept alive on water are transferred into transparent, hermetically sealed dishes and subjected to an atmosphere of 3.5 mM of MeJa (Serva). The tissues are removed at various times after treatment. The control plants are placed in the same dishes without MeJa.

The mark [1] stands for this setting: 1239 bp promoter, 16 h after treatment.

Take `c1ccc2snnc2c1` [BTH, benzothiadiazole]: the induction factors under setting [1] was determined as 2.5. For the same compound, the “Induction of the GUS activity %” value (1239 bp promoter, 16 h after treatment, nontreated plants C = 100) came to 250%.

Consider `COC(=O)c1cc(Cl)nc(Cl)c1` [INA, methyl-2,6-dichloroisonicotinic], for which the “GUS Activity” value is reported as 1,700 pmol MU/min.mg and the Induction % was found to be 200%.

Turning to `CC/C=C\CC1C(=O)CCC1CC(=O)OC` (stereo not shown) [Methyl jasmonate, methyl jasmonate], the induction factors under setting [1] is on record as 14.5.

In the case of `O=C(O)c1ccccc1O` [SA, salicylic acid], the “GUS Activity” value is on record as 1,200 pmol MU/min.mg and the Induction % worked out at 200%.
